Test results as given in US20140086881A1, “GOOD HEALTHY CELLS FOUND IN PROTEINS, THEIR APPLICATIONS, AND PROCESS OF MAKING A MEDIUM TO HARVEST THE CELLS” (priority 2012, published 2014).
Where two headings read alike, the source gives them in different places.

Key:
[1] = test system: Adjuvant-Induced Arthritis (AIA); assay: Adjuvant-Induced Arthritis (AIA) in Lewis rats; conditions: 35 days and 45 days treatment sections
[2] = test system: atherosclerotic model; conditions: for Animal Wounded, Total: n = 10, reason: fighting each other; for Animal Dead, Total: n = 10 ApoE ko mice, high fat diet
Description: 10 ApoE ko mice were fed with regular chow diet and used as negative control group. 50 ApoE ko mice were fed with high fat diet (35% kcal fat, 1% cholesterol) for 8 weeks, and then the plasma samples were collected for lipid profile measurement before the treatment. 50 ApoE ko mice were assigned into 5 groups based on the fasting overnight plasma TC and HDL level.
• 23 Dec. 2011: 60 ApoE mice arrived at chempartner and were housed in the animal facility in the building #3 for the acclimation. • 6 Jan. 2012: Measured the body weight for each mouse. 50 mice were fed with high fat diet and 10 mice were fed with normal chow diet. • 2 Mar. 2012: All mice were fasted over night and plasma samples (about 300 ul whole blood) were collected for lipid profile measurement before treatment with RAAS antibody. • 19 Mar. 2012 to 6 Apr. […] 2012: All mice were fasted over night and plasma sample for each mouse (about 300 ul whole blood) was collected for lipid profile measurement after 16 weeks treatment. Blood glucose was also measured for each mouse. • 9 Jul. 2012: The study was terminated after 16 weeks treatment. Measure BW, sacrificed each mouse, dissected the aorta, heart, liver and kidney and fixed them in 4% PFA.
Antibody products were administrated by intraperitoneal injection every two days (Monday, Wednesday, and Friday). and the positive compound was administered by p.o every day.
The body weight was weighed weekly during the period of treatment.
The fasting overnight blood glucose was measured at the end of study by Roche glucometer.
About 300 ul of blood sample was collected from the orbital vein for each mouse and centrifuged at 7000 rpm for 5 min at 4° C. and the plasma lipid profile was measured by Roche Modular automatic biochemistry analyzer in DaAn Medical Laboratory
After RAAS antibody products treatment for 16 weeks, all mice were sacrificed. Measured body weight and collected blood sample for each mouse. Weighed liver weight and saved a tiny piece of liver into 4% paraformaldehyde (PFA) fixation solution for further analysis. At same time, take the photos with heart, lung, aortas and two kidneys.
1. Sacrificed the mice and dissected the heart, aorta, and arteries under dissecting microscope.
4. Stain with freshly prepared Oil Red O working solution 10 min. • 1). Oil red O stock stain: 0.5% powder in isopropanol • 2). Working solution: dilute with distilled water (3:2) and filter with membrane (0.22 um)
Scanning the glasses slides with the Aperio ScanScope system and analyze with the image proplus software to measure the area of atherosclerotic plaque lession. The results were expressed as the percentage of the total aortic surface area covered by lesions. The operation procedure of software was briefly described as follow: Converted the sys version photos into JPG version, then calibrated it and subsequently selected the red regions and then calculate the total area automatically by image proplus software.
The results were expressed as the Mean±SEM and statistically evaluated by student's t-test.
Area Percent (%)=Sum Area of Atherosclerotic Plaque (Mm^2)/Whole Area of Vascular Inner Wall (Mm^2)

[3] = test system: HCV 2a replicon; assay: microbe, parasite or virus in culture; type: cell-based; conditions: Hepatitis C virus, read-out: EC50 (uM) 2a
Protocol: (§1) The cells are counted using hemocytometer.
(§2) Incubate plate at 5% CO2, 37° C. for 4 hours.
(§3) Dose-response curves are plotted using Prism.

[4] = test system: HCV 1a replicon; assay: microbe, parasite or virus in culture; type: cell-based; conditions: Hepatitis C virus, read-out: EC50 (uM) 1a
Protocol: as §1, §2, §3

[5] = test system: HCV 1b replicon; assay: microbe, parasite or virus in culture; type: cell-based; conditions: Hepatitis C virus, read-out: EC50 (uM) 1b
Protocol: as §1, §2, §3

[6] = test system: HBV; assay: HBV mouse hydrodynamic injection (HDI) model; type: in vivo, BALB/c mice; conditions: therapeutically-treated mice, from day 3 post HDI to the end
Description: Hydrodynamic injection (HDI) is an in vivo gene delivery technology. It refers to transiently transfect the mouse liver cells with a foreign gene via tail vein injection of a large volume saline containing plasmid within a few seconds. Taking the advantage of the liver-targeting manner of hydrodynamic injection, a single hydrodynamic injection of a replication-competent HBV DNA, could result in HBV replication in mouse liver shortly. This HBV hydrodynamic injection model on immunocompetent mice is a convenient and reproducible animal model for anti-HBV compound screening in vivo, which has been successfully established in WuXi ID department.
• 3.1 Hydrodynamic injection and compound administration • 3.1.1. From day −7 to day 0, all 5 mice in group 4 were administrated i.p./i.v. with test article daily for 8 days according to Table 14.2. • 3.1.2. On day 0, all groups of mice were hydrodynamicly injected via tail vein with pcDNA3.1/HBV plasmid DNA in a volume of normal saline equal to 8% of a mouse body weight. […]
• 3.2.1.1 Isolate DNA from 50 μl plasma using QIAamp 96 DNA Blood Kit. […] Run qPCR for HBV DNA quantification. a) Dilute HBV plasmid standard by 10-fold from 10^7 copies/μl to 10 copies/μl. b) Prepare qPCR mix as shown below. […]
HBV DNA quantity=DNA determined by HBV primer-DNA determined by plasmid primer. […]

[7] = test system: lung cancer cells; assay: KH mediums vs lung cancer cells, in-vitro well study; type: cell-based
Description: From which other companies in China have produced Human Albumin for use in the cell growth instead of feta bovine serum and also
The above have been discovered in In-Vitro well study but not tested for CCK8 to measure the degree of inhibition of the cancer cells by each of the mediums. Such a study has been performed on Oct. 4, 2012 it is amazing to find out that all series of medium from KH100, KH200 and KH300 have different level of effect on the inhibition of the lung cancer, leukemia, gastric and breast both solid tumors and blood cancer have been tested.

[8] = test system: HBV in HepG2.2.15; assay: Anti-HBV potency in stable HBV cell line (HBV DNA real time PCR); type: cell-based; conditions: Hepatitis B virus
Protocol: Lamivudine is diluted with 3-fold for 9 concentrations.
i) Cell culture medium: RPM 1640-4% FBS-1% Pen/Strep-1% Glutamine ii) HepG2.2.15 cell culture: Grow the cells in T75 flask. Incubated at 37° C., 95% humidity, 5% CO2.
f) Refresh protein-containing medium on day 3 of drug treatment. g) Collect culture media from the HepG2.2.15 plates on day 6 followed by HBV DNA extraction using QIAamp 96 DNA Blood Kit (QIAGEN #51161). 2) Real time PCR for HBV DNA quantification. a) Dilute HBV plasmid standard by 10-fold from 0.1 ng/ul to 0.000001 ng/ul. b) Prepare realtime PCR mix as shown blow.
c) Add 15 ul/well PCR mix to 96-well optical reaction plates. d) Add 10 ul of the diluted plasmid standard to C12-H12. […]
3) Data analysis: A standard curve is generated by plotting Ct value vs. the amount of the HBV plasmid standard, and the quantity of each sample is estimated based on the Ct value projection on the standard curve; percent of HBV inhibition by protein or compound is calculated using the following equation: % Inh.=[1−(HBV quantity of sample−HBV quantity of HepG2 control)/(HBV quantity of 0% Inhibition control−HBV quantity of HepG2 control)]*100.

For `C[C@@H]1C[C@H]2[C@@H]3CCC4=CC(=O)C=C[C@]4(C)[C@@]3(F)[C@@H](O)C[C@]2(C)[C@@]1(O)C(=O)CO` [Dex, Dexamethasone], which “body weight compared with saline group” value [1] is on record?
Its value is “reduction of body weight”.

How did the “Animal Wounded, Total” value ([2]; high dose 0.1 ml i.p.) turn out when APOA 1 was run?
The value was 1.

And the “Animal Dead, Total” value ([2]; high dose 0.1 ml i.p., reason: Fighting)?
Its value is 1.

And the “Animal Wounded, Total” value ([2]; low dose)?
Its value is 3.

And the “Animal Dead, Total” value ([2]; low dose, reasons: gastrorrhagia, urinary tract infection (2))?
The value was 3.

What about the “Animal Wounded, Total” value ([2]; mid dose 0.075 ml i.p.) of the same compound?
Its value is 1.

And the “Animal Dead, Total” value ([2]; mid dose 0.075 ml i.p., reason: Fighting)?
Its value is 1.

What does the source list for `NC(=O)c1ncn([C@@H]2O[C@H](CO)[C@@H](O)[C@H]2O)n1` [Ribavirin]?
EC50 [3]: 37.4 µM; EC50 [4]: 57.6 µM; EC50 [5]: 39 µM

Which “HBV replication in plasma” value [6] does the source give for `C=C1[C@H](CO)[C@@H](O)C[C@@H]1n1cnc2c(=O)[nH]c(N)nc21` [ETV, Entecavir] here?
The value was “significant inhibition”.

How did the “effect on lung cancer cells” value [7] turn out when “bovine human albumin: animal protein product” was run?
The value was “inhibited lung cancer cell growth”.

How did the EC50 [8] turn out when `Nc1ccn([C@@H]2CS[C@H](CO)O2)c(=O)n1` [Lamivudine] was run?
Its EC50 is 0.0062 µM.
